Laboratory results: PubChem BioAssay AID2060498 (Molecular Pharmacology Branch, DTP, NCI, 2025)

System: 171881-019-R-J1-PDC tumor spheroids, viability
Assay: Anticancer human tumor 171881-019-R-J1-PDC patient-derived invasive breast carcinoma cell line growth inhibition [GQUAD]
Settings: spheroids with HUVEC and MSC; for IC50: curve of first compound; for viability, T/C: stronger effect = lower value
Outline: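 Multi-cell-type spheroids of tumor cells with HUVEC and mesenchymal stem cells, treated with drug combinations. Concentrations descend in half-log steps from near clinical Cmax, or from 10 microM where Cmax is unknown; viability read-out.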

[1] = second compound 0.0316 µM, first compound 0.0316 µM
[2] = second compound 0.0316 µM, first compound 0.1 µM
[3] = second compound 0.0316 µM, first compound 0.316 µM
[4] = second compound 0.0316 µM, first compound 1 µM
[5] = second compound 0.0316 µM, first compound 3.16 µM
[6] = second compound 0.0316 µM, first compound 10 µM
[7] = second compound 0.1 µM, first compound 0.0316 µM
[8] = second compound 0.1 µM, first compound 0.1 µM
[9] = second compound 0.1 µM, first compound 0.316 µM
[10] = second compound 0.1 µM, first compound 1 µM
[11] = second compound 0.1 µM, first compound 3.16 µM
[12] = second compound 0.1 µM, first compound 10 µM
[13] = second compound 0.316 µM, first compound 0.0316 µM
[14] = second compound 0.316 µM, first compound 0.1 µM
[15] = second compound 0.316 µM, first compound 0.316 µM
[16] = second compound 0.316 µM, first compound 1 µM
[17] = second compound 0.316 µM, first compound 3.16 µM
[18] = second compound 0.316 µM, first compound 10 µM
[19] = second compound 1 µM, first compound 0.0316 µM
[20] = second compound 1 µM, first compound 0.1 µM
[21] = second compound 1 µM, first compound 0.316 µM
[22] = second compound 1 µM, first compound 1 µM
[23] = second compound 1 µM, first compound 3.16 µM
[24] = second compound 1 µM, first compound 10 µM
[25] = second compound 3.16 µM, first compound 0.0316 µM
[26] = second compound 3.16 µM, first compound 0.1 µM
[27] = second compound 3.16 µM, first compound 0.316 µM
[28] = second compound 3.16 µM, first compound 1 µM
[29] = second compound 3.16 µM, first compound 3.16 µM
[30] = second compound 3.16 µM, first compound 10 µM
[31] = second compound 10 µM, first compound 0.0316 µM
[32] = second compound 10 µM, first compound 0.1 µM
[33] = second compound 10 µM, first compound 0.316 µM
[34] = second compound 10 µM, first compound 1 µM
[35] = second compound 10 µM, first compound 3.16 µM
[36] = second compound 10 µM, first compound 10 µM
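Further: spheroids exposed to compounds for 7 days.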
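Wherever viability, T/C is given: 100% = DMSO vehicle control viability.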

COc1cccc2c1C(=O)c1c(O)c3c(c(O)c1C2=O)CC(O)(C(=O)CO)CC3OC1CC(N)C(O)C(C)O1 (stereo unspecified) + Cc1[nH]c2ccc(F)cc2c1-c1nc2c3cccnc3c3ncccc3c2[nH]1
IC50 (second compound 0.0316 µM): 0.135 µM | IC50 (second compound 0.1 µM): 0.148 µM | IC50 (second compound 0.316 µM): 0.156 µM | IC50 (second compound 1 µM): 0.117 µM | IC50 (second compound 3.16 µM): < 0.0316 µM | IC50 (second compound 10 µM): < 0.0316 µM | viability, T/C [1]: 89.8% | viability, T/C [2]: 51.9% | viability, T/C [3]: 38.1% | viability, T/C [4]: 16.4% | viability, T/C [5]: 0.24% | viability, T/C [6]: 0.22% | viability, T/C [7]: 85.3% | viability, T/C [8]: 55.3% | viability, T/C [9]: 37.9% | viability, T/C [10]: 16.5% | viability, T/C [11]: 0.15% | viability, T/C [12]: 0.52% | viability, T/C [13]: 82.8% | viability, T/C [14]: 56.4% | viability, T/C [15]: 38.7% | viability, T/C [16]: 13.9% | viability, T/C [17]: 0.13% | viability, T/C [18]: 0.5% | viability, T/C [19]: 76.2% | viability, T/C [20]: 47% | viability, T/C [21]: 40.3% | viability, T/C [22]: 14.7% | viability, T/C [23]: 0.3% | viability, T/C [24]: 0.77% | viability, T/C [25]: 22.2% | viability, T/C [26]: 17.1% | viability, T/C [27]: 18.2% | viability, T/C [28]: 9.24% | viability, T/C [29]: 0.43% | viability, T/C [30]: 0.81% | viability, T/C [31]: 38% | viability, T/C [32]: 38.9% | viability, T/C [33]: 23.1% | viability, T/C [34]: 16.5% | viability, T/C [35]: 0.93% | viability, T/C [36]: 0.93%

Nc1ccn(C2OC(CO)C(O)C2(F)F)c(=O)n1 (stereo unspecified) + Cc1[nH]c2ccc(F)cc2c1-c1nc2c3cccnc3c3ncccc3c2[nH]1
IC50 (second compound 0.0316 µM): < 0.0316 µM | IC50 (second compound 0.1 µM): < 0.0316 µM | IC50 (second compound 0.316 µM): < 0.0316 µM | IC50 (second compound 1 µM): < 0.0316 µM | IC50 (second compound 3.16 µM): < 0.0316 µM | IC50 (second compound 10 µM): < 0.0316 µM | viability, T/C [1]: 25.9% | viability, T/C [2]: 28.6% | viability, T/C [3]: 39.9% | viability, T/C [4]: 38.6% | viability, T/C [5]: 36.5% | viability, T/C [6]: 31.6% | viability, T/C [7]: 25.8% | viability, T/C [8]: 30.9% | viability, T/C [9]: 38.6% | viability, T/C [10]: 41.2% | viability, T/C [11]: 35.9% | viability, T/C [12]: 31.3% | viability, T/C [13]: 26.7% | viability, T/C [14]: 29.6% | viability, T/C [15]: 35.7% | viability, T/C [16]: 35.2% | viability, T/C [17]: 38.6% | viability, T/C [18]: 31.7% | viability, T/C [19]: 26.7% | viability, T/C [20]: 28.6% | viability, T/C [21]: 38% | viability, T/C [22]: 35.8% | viability, T/C [23]: 39.1% | viability, T/C [24]: 31.1% | viability, T/C [25]: 18.5% | viability, T/C [26]: 14% | viability, T/C [27]: 19.1% | viability, T/C [28]: 16.8% | viability, T/C [29]: 19.9% | viability, T/C [30]: 16.2% | viability, T/C [31]: 20.3% | viability, T/C [32]: 23.7% | viability, T/C [33]: 27.2% | viability, T/C [34]: 28.6% | viability, T/C [35]: 26.6% | viability, T/C [36]: 26.1%

O=c1[nH]cc(F)c(=O)[nH]1 + Cc1[nH]c2ccc(F)cc2c1-c1nc2c3cccnc3c3ncccc3c2[nH]1
IC50 (second compound 0.0316 µM): > 10 µM | IC50 (second compound 0.1 µM): > 10 µM | IC50 (second compound 0.316 µM): > 10 µM | IC50 (second compound 1 µM): > 10 µM | IC50 (second compound 3.16 µM): < 0.0316 µM | IC50 (second compound 10 µM): < 0.0316 µM | viability, T/C [1]: 75.7% | viability, T/C [2]: 64.5% | viability, T/C [3]: 62.7% | viability, T/C [4]: 54.1% | viability, T/C [5]: 47.7% | viability, T/C [6]: 53% | viability, T/C [7]: 80.5% | viability, T/C [8]: 70.7% | viability, T/C [9]: 60.9% | viability, T/C [10]: 54.7% | viability, T/C [11]: 50.5% | viability, T/C [12]: 53.5% | viability, T/C [13]: 73.1% | viability, T/C [14]: 65.8% | viability, T/C [15]: 59.3% | viability, T/C [16]: 52.7% | viability, T/C [17]: 58.7% | viability, T/C [18]: 52% | viability, T/C [19]: 68.6% | viability, T/C [20]: 55.4% | viability, T/C [21]: 56.6% | viability, T/C [22]: 50.2% | viability, T/C [23]: 54.3% | viability, T/C [24]: 48.8% | viability, T/C [25]: 21% | viability, T/C [26]: 21.6% | viability, T/C [27]: 30.6% | viability, T/C [28]: 23.8% | viability, T/C [29]: 24.2% | viability, T/C [30]: 24.7% | viability, T/C [31]: 44.4% | viability, T/C [32]: 47.8% | viability, T/C [33]: 47.3% | viability, T/C [34]: 42% | viability, T/C [35]: 52.1% | viability, T/C [36]: 38.8%
